PMC4385830, “Group I Paks as therapeutic targets in NF2-deficient meningioma” (Oncotarget, 2015)

How the values were obtained:
Arachnoid cell AC07 = assay: Cell viability, MTT assay; format: cell-based; conditions: NF2+/+, 72 hrs
Method: (§1) Cells were plated at 3 × 10^3 cells per well in 96-well plates overnight and treated with various concentrations of Pak inhibitors for 72 hours. Cell viability was measured by MTT assay and the half maximal inhibitory concentration (IC50) was calculated.

Benign Ben-Men-1 = assay: Cell viability, MTT assay; format: cell-based; conditions: for effect on growth of cells: Ben-Men, 3 days, GSK690693 effect only at high doses; for IC50: NF2−/−, 72 hrs, MTT
Method: as §1

Benign MN328 = assay: Cell viability, MTT assay; format: cell-based; conditions: NF2+/+, 72 hrs
Method: as §1

Malignant KT21-MG1 = assay: Cell viability, MTT assay; format: cell-based; conditions: for effect on growth of cells: KT21, 3 days, GSK690693 effect only at high doses; for IC50: NF2−/−, 72 hrs, MTT
Method: as §1

Malignant MN525 = assay: Cell viability, MTT assay; format: cell-based; conditions: NF2+/+, 72 hrs
Method: as §1

KT21 cells = assay: Apoptosis, Annexin V positive cells by flow cytometry; format: cell-based; conditions: 3 days, vs DMSO
Method: For detection of apoptosis, subconfluent cells were plated in 60-mm plate and treated with inhibitors for 3 days. Cells were collected, washed and resuspended in 1x binding buffer with Annexin V-EGFP and propidium iodide (BioVision, CA) and incubated at room temperature for 5 min in dark. Apoptosis was measured using FACS with collecting 10,000 events per sample.

Ben-Men cells = assay: Immunoblot of signaling pathways; format: cell-based
Method: (§2) Protein concentration was determined, and equal amount of total proteins were separated by SDS-PAGE. […] GAPDH and β-actin were used as loading control.

KT21 or Ben-Men cells = assay: Immunoblot of signaling pathways; format: cell-based
Method: as §2

[1] = tested on: KT21-MG1-Luc5D intracranial xenografts; assay: Orthotopic meningioma model, bioluminescence imaging; conditions: SCID mice; oral gavage 90 mg/kg/day; 2 weeks; BLI
Source text: Eight-week-old SCID mice were anesthetized with ketamine and their heads were stabilized in a small animal stereotaxic instrument. A midline sagittal incision was made on the cranial skin. A burr hole was drilled in the skull with coordinated 1.5 mm anterior and 1.5 mm lateral to the right from the bregma and a 5-μl Hamilton syringe loaded with cells was slowly inserted through the burr hole and ~0.5 mm downward to the skull base. The incision was closed using surgical absorbable gut suture.
Mice transplanted with meningioma cells were imaged using Xenogen IVIS Spectrum (Caliper, MA). Mice were injected intraperitoneally with Rediject D-Luciferin Ultra at 150 mg/kg under anesthetized with isofluorane. Luciferase activity was measured and all bioluminescence imaging was conducted when perk signal was reached. Once tumors were established (~3 weeks post-transplantation), mice were divided into groups for shRNA studies or drug treatments.
For drugs treatment, mice were dosed with Pak inhibitors daily for 14–21 days and tumor growth was monitored every week by BLI. Mean luminescence for each treatment groups (n = 5) was calculated as described previously.

Compound | IC50 (Arachnoid cell AC07) | effect on growth of cells (Benign Ben-Men-1) | IC50 (Benign Ben-Men-1) | IC50 (Benign MN328) | effect on growth of cells (Malignant KT21-MG1) | IC50 (Malignant KT21-MG1) | IC50 (Malignant MN525) | number of apoptotic cells (KT21 cells) | basal level (expression) of β-catenin (Ben-Men cells) | phosphorylation of β-catenin (Ben-Men cells) | phosphorylation of Pak and Mek1 (at Ser298) (KT21 or Ben-Men cells; inhibitors at IC50 concentration) | impaired KT21 tumor growth compared to vehicle cohort [1] | Pak activity (KT21 or Ben-Men cells; immunoblot)
CCn1c(-c2nonc2N)nc2c(C#CC(C)(C)O)ncc(OC[C@H]3CCCNC3)c21 [GSK690693] | > 20 µM | impeded the growth | 3.27 µM | > 20 µM | impeded the growth | 4.24 µM | > 20 µM |  |  |  |  |  | 
CCn1c(=O)c(-c2ccc(-c3cncs3)cc2Cl)cc2cnc(Nc3ccc(N4CCN(C)CC4)cc3)nc21 [Frax597] | 1.18 µM |  | 0.393 µM | 2.81 µM |  | 2.93 µM | 1.59 µM | substantial increase | did not impact | diminished | dramatically inhibited | 50% | 
O=C(NOC[C@H](O)CO)c1ccc(F)c(F)c1Nc1ccc(I)cc1F [PD325901] | > 20 µM | no effect | > 20 µM | > 20 µM | no effect | > 7 µM | > 20 µM |  |  |  |  |  | 
Oc1ccc2ccccc2c1SSc1c(O)ccc2ccccc12 [IPA3, reference compound] |  |  |  |  |  |  |  |  | induction |  |  |  | paradoxical stimulation
